Read-outs that look alike come from different tables or passages of the source.
Legend:
DBP [1] = target: T1, DBP (Homo sapiens, UniProt P02774); test: ELISA to demonstrate that compound C can be competed out with 25-OH-D3; type: binding; details: 2 μg 25-OH-D3 added with C (30, 60, 120 ng); triplicate
T1 construct: purchased Calbiochem, San Diego, Calif
T1 sequence (P02774 17-474): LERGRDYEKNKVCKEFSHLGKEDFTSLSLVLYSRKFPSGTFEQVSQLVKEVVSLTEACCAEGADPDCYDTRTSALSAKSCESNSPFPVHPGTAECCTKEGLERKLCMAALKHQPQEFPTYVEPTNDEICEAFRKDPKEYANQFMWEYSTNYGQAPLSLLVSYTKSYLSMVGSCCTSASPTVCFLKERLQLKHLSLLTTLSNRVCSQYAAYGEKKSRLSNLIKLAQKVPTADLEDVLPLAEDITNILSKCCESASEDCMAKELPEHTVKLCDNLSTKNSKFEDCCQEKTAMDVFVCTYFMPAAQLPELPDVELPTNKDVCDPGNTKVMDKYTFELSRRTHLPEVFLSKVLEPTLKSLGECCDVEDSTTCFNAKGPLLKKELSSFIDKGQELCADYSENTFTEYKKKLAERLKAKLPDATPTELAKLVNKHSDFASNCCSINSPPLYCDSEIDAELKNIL
Method: In the next experiment, it was determined whether it would be possible to displace compound C, bound to DBP (which is attached to an ELISA plate), with a known concentration of 25-OH-D3. In a real sample, one will be measuring the amount of 25-OH-D and not that of compound C.
Procedure: same as before, except either C, or C and 2 μg of 25-OH-D3 were added to each plate. Each concentration (point) was done in triplicate. The blank contained no 25-OH-D3 or C.
Furthermore, the amount of compound C is […] to the concentration of added 25-OH-D3.

[2] = target: T2, Human Vitamin D-binding Protein (hDBP) (Homo sapiens, UniProt P02774)
T2 sequence (P02774 17-474): T1 sequence (P02774 17-474)
Method: Competitive Radioligand Binding Assays of Aanalogs (C) and (F) with Human Vitamin D-binding Protein (hDBP)
These assays were carried out to determine the viability of these synthetic analogs to serve as substrates for hDBP.

DBP [3] = target: T1, DBP; test: Checkerboard titration (ELISA) of DBP and compound C to obtain a colorimetric signal; type: binding; details: with minimum 6.25 ng DBP; color determined visually
Method: The method involves attachment of DBP to an ELISA plate followed by the addition of a known quantity of 25-OH-D3-biotin conjugate (compound C). […] Excess amount of C is washed off, and an excess of avidin is added which gets bound to biotin attached to 25-OH-D3. The plate is then incubated in sequence with anti-avidin antibody, a secondary antibody coupled to horseradish peroxidase (HRP), and ABTS (2,2′-azino-di-(3-ethylbenzthiazoline)sulfonate, the substrate that produces a […] color which may be monitored spectrophotometrically or visually. The intensity (absorbance) of the color is directly proportional to the concentration of compound C. In the first experiment, the optimal concentrations of DBP and compound C to develop color were determined (visually). In this experiment, each sample of DBP was tested against each amount of compound C.
A. Determination of the Optimal Amount of DBP and Compound (C) in a Checkerboard Titration (ELISA) to obtain a Colorimetric Signal
Add different amounts of purified hDBP (From Calbiochem, San Diego, Calif., in 100 mM Na2CO3 buffer, pH 8.4) to wells of an ELISA plate
Block excess sites with BSA (1 mg/ml, 300 μl)
↓ wash with PBS containing 0.05% TWEEN 20
Add different amounts of C in EtOH
Wash with PBS containing 0.05% TWEEN 20 (Biorad, Richmond, Calif.) […]
Color development detected visually or spectrophotometrically.

Compound: C=C1CC[C@H](O)C/C1=C/C=C1\CCC[C@]2(C)[C@@H]([C@H](C)CCCC(C)(C)O)CC[C@@H]12 [Compound 25-OH-D3, 25-hydroxyvitamin D3]
- displacement of compound C bound to DBP on an ELISA plate (color development) (DBP [1]): capable of displacing compound C bound to DBP

Compound: C=C1CC[C@H](OCCCNC(=O)CCCCCNC(=O)CCCC[C@@H]2SC[C@@H]3NC(=O)N[C@@H]32)C/C1=C/C=C1\CCC[C@]2(C)[C@@H]([C@H](C)CCCC(C)(C)O)CC[C@@H]12 [C, Conjugate of 25-OH-D3-3-Aminopropyl Ether and Biotin-X-NHS]
- ability to replace 25-OH-D3 for DBP binding [2]: can replace 25-OH-D3 for DBP binding
- times less efficient than 25-OH-D3 in displacing 3H-25-OH-D3 bound to hDBP [2]: ~11 times
- minimum amount required to obtain yellow color (DBP [3]): 30 ng

Compound: Biotin conjugate of 25-OH-D3-3-aminopropyl-3-(6-amino) hexanoic acid
- ability to replace 25-OH-D3 for DBP binding ([2]; FIG. 1): can replace 25-OH-D3 for DBP binding

— patent US6455714B1, “Labeled vitamin D compounds and the use thereof” (A & D BioScience, Inc., priority 1995, dated 2002)
